In publication PMC5228619 (Cell chemical biology, 2016):
≈ marks a conversion by molar mass, not a printed value.

Experiments:
[1] = system: UCH MRSA 1 (dfrG); experiment: MIC against clinical isolate UCH MRSA 1; assay type: cell-based, Staphylococcus aureus
[2] = system: UCH MRSA 115 (dfrA); experiment: MIC against clinical isolate UCH MRSA 115; assay type: cell-based, Staphylococcus aureus
[3] = system: UCH MRSA 121 (dfrG); experiment: MIC against clinical isolate UCH MRSA 121; assay type: cell-based, Staphylococcus aureus
[4] = system: UCH MRSA 127 (dfrG); experiment: MIC against clinical isolate UCH MRSA 127; assay type: cell-based, Staphylococcus aureus
[5] = system: HH MRSA 714 (dfrG); experiment: MIC against clinical isolate HH MRSA 714; assay type: cell-based; conditions: Staphylococcus aureus
[6] = system: HH MRSA 1144 (dfrA); experiment: MIC against clinical isolate HH MRSA 1144; assay type: cell-based, Staphylococcus aureus
[7] = system: UCH MSSA 1 (dfrG); experiment: MIC against clinical isolate UCH MSSA 1; assay type: cell-based, Staphylococcus aureus
[8] = system: HH MRSA 1184 (dfrK); experiment: MIC against clinical isolate HH MRSA 1184; assay type: cell-based, Staphylococcus aureus
[9] = system: ATCC 43300 (Sa43300); experiment: MIC against ATCC 43300; assay type: cell-based, Staphylococcus aureus
[10] = system: S. aureus with dfrB point mutations; conditions: point mutations in chromosomal dfrB, ref Dale et al., 1997, cited from earlier work
[11] = system: multi-drug resistant MRSA ST398 (dfrK); conditions: dfrK in swine MRSA ST398; ref Kadlec et al. 2010; cited from earlier work
[12] = system: TMP-resistant MRSA and MSSA clinical isolates; experiment: MIC against panel of TMP-resistant clinical isolates; assay type: cell-based, Staphylococcus aureus
[13] = system: TMP-resistant MRSA and MSSA clinical isolates; experiment: Clinical antibiotic susceptibility; assay type: cell-based, Staphylococcus aureus; conditions: all strains; CLSI breakpoint standards
[14] = Staphylococcus aureus, ATCC43300
[15] = UCH MRSA 115 (dfrA), SSTI isolate
[16] = UCH MRSA 121 (dfrG), sputum isolate
[17] = UCH MRSA 127 (dfrG), SSTI isolate
[18] = HH MRSA 1144 (dfrA), SSTI isolate
[19] = HH MRSA 1184 (dfrK), sputum isolate
[20] = UCH MSSA 1 (dfrG), sinus cavity isolate
[21] = ATCC 43300, no TMP resistance gene

For `Cc1cc(NS(=O)(=O)c2ccc(N)cc2)no1` [SMX, sulfamethoxazole, reference compound], the MIC ([1]; Staphylococcus aureus, MRSA) was > 500 µg/mL, the MIC ([2]; Staphylococcus aureus, MRSA) was 500 µg/mL (≈ 1970 µM) and the MIC ([3]; Staphylococcus aureus, MRSA) was > 500 µg/mL. For the same compound, the MIC ([4]; Staphylococcus aureus, MRSA) was 16 µg/mL (≈ 63.2 µM), the MIC [5] was > 500 µg/mL and the MIC ([6]; Staphylococcus aureus, MRSA) was > 500 µg/mL. The MIC ([7]; Staphylococcus aureus, MSSA) was > 500 µg/mL.

In the case of `COc1cc(Cc2cnc(N)nc2N)cc(OC)c1OC` [TMP, trimethoprim, reference compound], the MIC ([1]; Staphylococcus aureus, MRSA) is reported as > 1000 µg/mL, the MIC ([2]; Staphylococcus aureus, MRSA) is reported as 250 µg/mL (≈ 861 µM) and the MIC ([3]; Staphylococcus aureus, MRSA) is reported as > 1000 µg/mL. For the same compound, the MIC ([4]; Staphylococcus aureus, MRSA) was > 1000 µg/mL, the MIC [5] was > 1000 µg/mL and the MIC ([8]; Staphylococcus aureus, MRSA) was > 1000 µg/mL. For the same compound, the MIC ([7]; Staphylococcus aureus, MSSA) was > 1000 µg/mL, the MIC [9, 14] was 0.312 µg/mL (≈ 1.08 µM) and the MIC ([10]; 1990s) was 256 µg/mL (≈ 882 µM). The “Increase in MIC” value [10] was ~ 800 fold and the MIC [11] was 256 µg/mL (≈ 882 µM).

In the case of `CCc1nc(N)nc(N)c1C#C[C@@H](C)c1cc(-c2ccc(C(=O)O)cc2)ccc1OC` [UCP1164], the MIC ([1]; UCH MRSA 1 (dfrG), blood isolate) is reported as 2.5 µg/mL (≈ 6 µM), the MIC [2, 15] is reported as 10 µg/mL (≈ 24 µM) and the MIC [3, 16] is reported as 5 µg/mL (≈ 12 µM). It also gave an MIC [4, 17] of 2.5 µg/mL (≈ 6 µM), an MIC [6, 18] of 5 µg/mL (≈ 12 µM) and an MIC [8, 19] of 0.625 µg/mL (≈ 1.5 µM). The MIC [7, 20] was 5 µg/mL (≈ 12 µM) and the MIC [9, 21] was 0.0391 µg/mL (≈ 0.0939 µM).

`CCc1nc(N)nc(N)c1C#C[C@@H](C)c1cc(OC)cc(-c2ccc(C(=O)O)cc2)c1` [UCP1172] gave an MIC [2, 15] of 5 µg/mL (≈ 12 µM), an MIC [3, 16] of 0.625 µg/mL (≈ 1.5 µM) and an MIC [4, 17] of 0.3125 µg/mL (≈ 0.75 µM). It also gave an MIC [6, 18] of 5 µg/mL (≈ 12 µM), an MIC [8, 19] of 0.3125 µg/mL (≈ 0.75 µM) and an MIC [9, 21] of 0.0098 µg/mL (≈ 0.0235 µM). For the same compound, the “MIC against strains possessing dfrA” value ([12]; dfrA-possessing strains) was “does not significantly inhibit”.

Compound `CCc1nc(N)nc(N)c1C#CC(C)c1cc2c(c(-c3ccc(C(=O)O)cc3)c1)OCO2` (stereo not shown) [UCP1191] has an MIC [2, 15] of 20 µg/mL (≈ 46.5 µM), an MIC [3, 16] of 0.625 µg/mL (≈ 1.45 µM) and an MIC [4, 17] of 0.1563 µg/mL (≈ 0.363 µM). It also gave an MIC [6, 18] of 10 µg/mL (≈ 23.2 µM), an MIC [8, 19] of 0.1563 µg/mL (≈ 0.363 µM) and an MIC [7, 20] of 0.3125 µg/mL (≈ 0.726 µM). The “MIC against strains carrying dfrG and dfrK” value ([12]; dfrG- and dfrK-possessing strains) was 0.1563−0.625 μg/mL.

In the case of `CCc1nc(N)nc(N)c1C#C[C@@H](C)c1cc2c(c(-c3ccc(C(=O)O)cc3)c1)OCO2` [UCP1205, (S)-4-(6-(4-(2,4-diamino-6-ethylpyrimidin-5-yl)but-3-yn-2-yl)benzo[d][1,3]dioxol-4-yl)benzoic acid], the MIC ([1]; Staphylococcus aureus, MRSA) is reported as 0.625 µg/mL (≈ 1.45 µM), the MIC ([2]; Staphylococcus aureus, MRSA) is reported as > 10 µg/mL and the MIC ([3]; Staphylococcus aureus, MRSA) is reported as 0.625 µg/mL (≈ 1.45 µM). For the same compound, the MIC ([4]; Staphylococcus aureus, MRSA) was 0.312 µg/mL (≈ 0.726 µM), the MIC [5] was 0.625 µg/mL (≈ 1.45 µM) and the MIC ([6]; Staphylococcus aureus, MRSA) was > 10 µg/mL. For the same compound, the MIC ([8]; Staphylococcus aureus, MRSA) was 0.312 µg/mL (≈ 0.726 µM) and the MIC ([7]; Staphylococcus aureus, MSSA) was 0.312 µg/mL (≈ 0.726 µM).

For `CCc1nc(N)nc(N)c1C#C[C@H](C)c1cc2c(c(-c3ccc(C(=O)O)cc3)c1)OCO2` [UCP1206, (R)-4-(6-(4-(2,4-diamino-6-ethylpyrimidin-5-yl)but-3-yn-2-yl)benzo[d][1,3]dioxol-4-yl)benzoic acid], the MIC ([1]; Staphylococcus aureus, MRSA) was 2.5 µg/mL (≈ 5.81 µM), the MIC ([2]; Staphylococcus aureus, MRSA) was > 10 µg/mL and the MIC ([3]; Staphylococcus aureus, MRSA) was 2.5 µg/mL (≈ 5.81 µM). The MIC ([4]; Staphylococcus aureus, MRSA) was 1.25 µg/mL (≈ 2.9 µM), the MIC [5] was 2.5 µg/mL (≈ 5.81 µM) and the MIC ([6]; Staphylococcus aureus, MRSA) was > 10 µg/mL. The MIC ([8]; Staphylococcus aureus, MRSA) was 1.25 µg/mL (≈ 2.9 µM), the MIC ([7]; Staphylococcus aureus, MSSA) was 1.25 µg/mL (≈ 2.9 µM) and the MIC [9, 14] was 0.0098 µg/mL (≈ 0.0228 µM).

With `CCCCCCCCCC(=O)N[C@@H](Cc1c[nH]c2ccccc12)C(=O)N[C@H](CC(N)=O)C(=O)N[C@@H](CC(=O)O)C(=O)N[C@@H]1C(=O)NCC(=O)N[C@@H](CCCN)C(=O)N[C@@H](CC(=O)O)C(=O)N[C@H](C)C(=O)N[C@@H](CC(=O)O)C(=O)NCC(=O)N[C@H](CO)C(=O)N[C@@H]([C@H](C)CC(=O)O)C(=O)N[C@@H](CC(=O)c2ccccc2N)C(=O)O[C@@H]1C` [daptomycin] the “Susceptibility based on breakpoint MICs” value [13] was “susceptible”.

With `CC(=O)NC[C@H]1CN(c2ccc(N3CCOCC3)c(F)c2)C(=O)O1` [linezolid] the “Susceptibility based on breakpoint MICs” value [13] was “susceptible”.

For `CO[C@H]1/C=C/O[C@@]2(C)Oc3c(C)c(O)c4c(O)c(c(/C=N/N5CCN(C)CC5)c(O)c4c3C2=O)NC(=O)/C(C)=C\C=C\[C@H](C)[C@H](O)[C@@H](C)[C@@H](O)[C@@H](C)[C@H](OC(C)=O)[C@@H]1C` [rifampin], the “Susceptibility based on breakpoint MICs” value [13] was “susceptible”.

In the case of `CN[C@H](CC(C)C)C(=O)N[C@H]1C(=O)N[C@@H](CC(N)=O)C(=O)N[C@H]2C(=O)N[C@H]3C(=O)N[C@H](C(=O)N[C@H](C(=O)O)c4cc(O)cc(O)c4-c4cc3ccc4O)[C@H](O)c3ccc(c(Cl)c3)Oc3cc2cc(c3O[C@@H]2O[C@H](CO)[C@@H](O)[C@H](O)[C@H]2O[C@H]2C[C@](C)(N)[C@H](O)[C@H](C)O2)Oc2ccc(cc2Cl)[C@H]1O` [vancomycin], the “Susceptibility based on breakpoint MICs” value [13] is reported as “susceptible”.
